Consider four compounds from patent EP2476410A1, “An analgesic peptide-containing composition for transbuccal administration” (priority 2011, dated 2012).

Entries after “also recorded” stand apart in the source; their conditions may differ. Like-named read-outs stand apart in the source and are kept apart here. Marks after values point to notes of the source that are not given here.

For data set [1], the system named is Swiss albino mice. Briefly: Hot plate model. Type of data set: in vivo. The note with it: intraperitoneal administration, 30 min post-dose, positive control.
Data set [2] has as its system Swiss albino mice. Briefly: Acetic acid-induced writhing model. The class given is in vivo. The note with it: 1 mg/kg, intraperitoneal. The protocol:
Swiss albino mice (20-25 g, male) were administered with the peptide and at the appropriate post- dose time acetic acid (0.9% solution) was injected intraperitoneally (10 ml/kg). The mice were then placed in a transparent observer box and the total number of writhes per animal in the 15 min period after injection of acetic acid was recorded. A writhe is typically characterized by contractions of the abdominal musculature followed by extension of the hind limbs. Statistical comparison was done by either Student's t-test or one-way ANOVA.
At 1 h post administration time, acetic acid (0.9% solution) was injected intraperitoneally and the total number of writhes per animal was recorded, as described above. Upon completion of the experiment the animals were sacrificed and skull exposed. The accuracy of the injection was confirmed via injection of methyl-blue dye into the injection aperture left by the original injection. Only results from mice showing coloration of the ventricles are accepted.
Background: In writhing tests, fewer writhes than in controls are read as antinociception.

Data set [3] has as its system Swiss albino mice. Put plainly: Rotarod test. The class given is in vivo. The note with it: 20 mg/kg, subcutaneous. The protocol:
Swiss albino mice (∼20-30 g) were first trained on the rotarod, which accelerated from 0-20 rpm over 5 min, prior to the experiment. Only mice that were capable of staying on the rotarod for the entire 5 min period were used in this experiment. Mice were either administered with the peptide (1 or 10 mg/kg, sublingual), or morphine (20 mg/kg, subcutaneous). After drug administration, the animals are placed on the rotarod and the time taken for the mice to slip was recorded (up to 5 min), and subsequently at 1h, 2h and 3h post peptide, and at 30 min, 1h30 min and 2h30 min post morphine. Statistical comparison was done by either Student's t-test or one-way ANOVA.

Data set [4] has as its system Swiss albino mice. Briefly: Spontaneous locomotor activity. The class given is in vivo. The conditions noted are these: 50 mg/kg, intraperitoneal, between 60 min and 220 min post drug administration. The protocol: Swiss albino mice (∼30 - 40 g) were first placed into their respective chambers with a 20 min pre-treatment recording. Only mice showing at least 50 counts / 5 min are used in the experiments. Mice were administered saline (control), peptide (5 or 50 mg/kg) or morphine (50 mg/kg). Experimenters were blind to the identity of the drug solutions. After drug administration, the animals were placed into their individual chambers and their spontaneous locomotor activity was recorded by video tracking and the data were recorded for a period of 4 h. Statistical comparison was done by 2-way ANOVA.

Data set [5] concerns Swiss albino mice. Put plainly: GI motility (charcoal transit distance). Type of data set: in vivo. The conditions noted are these: 0.5 to 50 mg/kg intraperitoneal, 30 min post-drug. The protocol:
Swiss albino mice (30-35 g) were injected with saline, the peptide (5 mg/kg, 50 mg/kg intraperitoneal) or morphine (0.5 mg/kg, 5 mg/kg, 50 mg/kg intraperitoneal). The experimenters are blind to the identity of the solutions. All mice were administered 5 mg charcoal (0.1 ml of 50 mg/ml charcoal solution) via oral gavage immediately after drug administration. At 30 min post- drug / charcoal administration, the mice were sacrificed by cervical dislocation and the GI tract was exposed and the location of the charcoal identified. The distance the charcoal traveled in the intestine from the stomach was measured and expressed as % of total length of the GI tract.

For data set [6], the system named is rats. Briefly: Elevated-plus maze test. Type of data set: in vivo. The conditions noted are these: compared to DMSO-controls. The source says:
The Elevated-Plus Maze Test is generally used to assess anxiety level of rodents due to their natural aversion for height. Two opposite arms of the elevated-plus maze are enclosed by high walls (closed arms) while the other two are not (open arms). The test animals (rats) naturally prefer and spend more time in the closed arms.

For data set [7], the system named is rats. Briefly: Open-field test (anxiety score). The class given is in vivo. The note with it: positive control. The text has this: The open field test is generally used to assess anxiety level of rodents due to their natural aversion of open space and thus their preference to stay near the side rather than venturing to the more open central part of the open field.
The open field was divided into 16 equal size squares (25 x 25 cm). The 4 squares at the centre are assigned a low anxiety score (0) while those at the 4 corners are assigned a high anxiety score (2). The remaining 8 squares are assigned a medium score (1). A rat entering each square will be given the score assigned to that square. The sum total obtained within the 5-min test period divided by the number of squares entered is the anxiety score for that rat. Diazepam was used as positive control. Statistical comparison was done by Student's t-test.

For data set [8] the following is noted: cited from earlier work.
Where [9] appears, read: sublingual route (oxytocin in physiological saline solution).

`CN1CC[C@]23c4c5ccc(O)c4O[C@H]2[C@@H](O)C=C[C@H]3[C@H]1C5` [Morphine, morphine] had an ED50 in data set [1] (Mus musculus, ip, 0.5 h) of 0.82 mg/kg. In data set [1], the Emax is reported as 250 % of pre-dose latency. For the same compound, in data set [2], the “Time to first writhe” value is 190.75* % saline control, the “Total writhes in 15 min” value was 38.18* % saline control, the “Writhes in first 5 min” value is given as 12.5* % saline control and the “Writhes in subsequent 10 min” value is given as 48.56* % saline control. Further, the “rotarod performance (time to slip)” value in data set [3] (30 min, 1h30 min and 2h30 min post dose) is given as “No statistical significant effects”. The “rotarod performance (time to slip)” value in data set [3] (30 min post drug administration, p=0.056) is listed as “near significant decrease in performance”. Moreover, in data set [4], the locomotive activities result was “significant increase in locomotive activities”. The GI transit distance entry in data set [5] is reported as “dose-dependently decreased GI motility; also recorded: dose dependent inhibitory effect”.
As for `CN1C(=O)CN=C(c2ccccc2)c2cc(Cl)ccc21` [diazepam], the “times spent in open and closed arms” value in data set [6] is “reversed the times spent in open and closed arms”. Besides, the anxiety score result in data set [7] is given as “decreased the anxiety score significantly”.
As to desmopressin, in data set [8] (setting [9]), the bioavailability result is listed as “about 0.25%”.
On to oxytocin, for which the bioavailability was 27% in data set [8] (formulation with 0.75% w/w sodium taurocholate (tablet form)); 0.007-0.07% in data set [8] (setting [9]); 0.007 - 0.07% in data set [8] (sublingual route (oxytocin in physiological saline solution), listed as Oxytocin).

For orientation: ED50 means the dose at which the effect has come halfway, by size or by number of responders. Low values mean greater potency, high ones weaker potency. The term bioavailability denotes dose-corrected exposure relative to a reference, in per cent.
